The values below come from publication PMC11358582, “Discovery of a potential bladder cancer inhibitor CHNQD-01281 by regulating EGFR and promoting infiltration of cytotoxic T cells” (Marine Life Science & Technology, 2024).

SMILES strings stand for the structures. In brackets after ≈: the same amount, converted by molar mass. A value given as a limit tells only on which side of the number the result lay.

One data set concerns T24 cells. The data set is described as follows: MTT cell proliferation assay. The format is cell-based, human. How it is done: (§1) Human tumor cell lines Eca-109, BEL-7402, BxPC-3, HCT-116, HT-29, T24, HCT-8, SGC-7901, DLD-1, TE-1, BT-549, MGC-803 and human hepatocyte cell line L-02 were cultured in Roswell Park Memorial Institute (RPMI) 1640. HuH-7 and SW-480 were cultured in Dulbecco’s modified Eagle’s medium (DMEM). J82, HepG2, Hela, U87 were cultured in Minimum Essential Medium (MEM). Murine bladder cancer cell line, MB49, was cultured in DMEM. The above-mentioned culture medium was provided by GIBCO (Grand Island, USA), contained 10% fetal bovine serum (PAN, Germany), 10 mg/mL of streptomycin, and 10 kU/mL penicillin (Beyotime, China).
(§2) Cells were seeded in 96-well plates and incubated with indicated concentrations of CHNQD-01281 for indicated periods. Next, medium was discarded and MTT (5 mg/mL) was added to each well. The cells were incubated at 37 °C for another 4 h. After that, supernatant was discarded, and DMSO was added and incubated at 37 °C for 15 min. Finally, absorbance was measured at 570 nm (Molecular Devices, USA).
To investigate whether CHNQD-01281 had selective inhibitory effect on cancer cell lines, a variety of human tumor cell lines were assayed by MTT, such as bladder cancer cell lines (J82 and T24), colorectal cancer cell lines (HCT-116, HT-29, HCT-8, DLD-1 and SW-480), cervical cancer cell line (Hela), esophageal cancer cell lines (TE-1 and Eca-109), breast cancer cell line (BT-549), gastric carcinoma cell lines (MGC-803 and SGC-7901), glioma cell line (U87), pancreatic carcinoma cell line (BxPC-3) and hepatocellular carcinoma cell lines (Hep G2, BEL-7402 and HuH-7) (Fig. 2A).

In data set [1] the test system is human hepatocyte cell line L-02. In words: MTT cell proliferation assay. It counts as cell-based. The note with it: L-02, MTT, 72 h. How it is done: as §1, §2
Thus, the bladder cancer cell lines J82 and T24 were further investigated and treated by CHNQD-01281 under gradient concentrations (0.031−1.00 µmol/L) and times (24, 72 and 120 h) to measure proliferation activities (Fig. 2B). However, the inhibition of T24 or J82 cell lines by CHNQD-01281 was less than 50% even at the highest concentration of 1 µmol/L for 24 h. […] Therefore, CHNQD-01281 has a higher selectivity index compared to BFA.

Data set [2] can be described thus: Solubility in selected aqueous solutions. The format is physicochemical. An excerpt:
The problem of poor water solubility is one of the factors that seriously restricts the preclinical application of BFA. Therefore, from the perspective of pharmaceutics, it is of great application value to explore safe and effective methods to improve its solubility. Based on the previous screening of commonly used solvents, solubilizers and co-solvents for BFA and its derivatives, we explored the solubility of CHNQD-01281, which was compared and assessed in selected aqueous solutions (Table 1). Saline or PBS were commonly used solvents, but the solubility of BFA or CHNQD-01281 was less than 1 mg/mL when used alone. No significant improvement in solubility was observed after the addition of DMSO or PEG400. […] More importantly, the solution system of CHNQD-01281 with saline/DMSO/solutol HS-15 (85/5/10) can fully meet the needs of follow-up experiments in vivo, such as pharmacodynamics, pharmacokinetics and safety evaluation.

Turning to `C[C@H]1CCC/C=C/[C@@H]2C[C@H](O)C[C@H]2[C@H](O)/C=C/C(=O)O1` [BFA, Brefeldin A, reference compound], the IC50 came to 22 nM with T24 cells (Homo sapiens, T-24, T24, MTT, 72 h) and 42 nM in data set [1]. Also, in the data set with T24 cells (L-02 versus T24), the “SI (selectivity index)” value is recorded as 1.91. The solubility in data set [2] (25 °C, pH 7.4, aqueous with cosolvent or surfactant or cyclodextrin, No. 2: Saline/DMSO 95/5, pH 7.4, 25 °C) was less than 1000 µg/mL; in data set [2] (25 °C, pH 7.4, aqueous with cosolvent or surfactant or cyclodextrin, No. 3: PBS/DMSO 95/5, pH 7.4, 25 °C) it was less than 1000 µg/mL; in data set [2] (25 °C, pH 7.4, aqueous with cosolvent or surfactant or cyclodextrin, No. 4: Saline/PEG400 95/5, pH 7.4, 25 °C), less than 1000 µg/mL; in data set [2] (25 °C, pH 7.4, aqueous with cosolvent or surfactant or cyclodextrin, No. 5: Saline/PEG400 80/20, pH 7.4, 25 °C) it was less than 1000 µg/mL; in data set [2] (25 °C, pH 7.4, aqueous with cosolvent or surfactant or cyclodextrin, No. 6: Saline/DMSO/solutol HS-15 85/5/10, pH 7.4, 25 °C) it was 1000 to 1500 µg/mL (≈ 3.57 to 5.35 mM); in data set [2] (25 °C, pH 7.4, aqueous with cosolvent or surfactant or cyclodextrin, No. 7: Saline/solutol HS-15 95/5, pH 7.4, 25 °C) it was less than 1000 µg/mL. For the same molecule, the solubility in data set [2] (25 °C, pH 7.4, aqueous with cosolvent or surfactant or cyclodextrin, No. 8: Saline/solutol HS-15 90/10, pH 7.4, 25 °C) is less than 1000 µg/mL; in data set [2] (25 °C, pH 7.4, saline or isotonic, No. 1: Saline (0.9% NaCl) 100, pH 7.4, 25 °C), less than 1000 µg/mL; in data set [2] (Saline or PBS used alone), less than 1000 µg/mL.
